The source made the active and inactive calls. The rule behind the calls is not given here.
Legend:
[1] = target: T1, Peroxisome proliferator-activated receptor alpha (Homo sapiens, UniProt Q07869); assay: Inhibition of human PPARalpha receptor by scintillation proximity assay
T1 sequence (Q07869 whole entry): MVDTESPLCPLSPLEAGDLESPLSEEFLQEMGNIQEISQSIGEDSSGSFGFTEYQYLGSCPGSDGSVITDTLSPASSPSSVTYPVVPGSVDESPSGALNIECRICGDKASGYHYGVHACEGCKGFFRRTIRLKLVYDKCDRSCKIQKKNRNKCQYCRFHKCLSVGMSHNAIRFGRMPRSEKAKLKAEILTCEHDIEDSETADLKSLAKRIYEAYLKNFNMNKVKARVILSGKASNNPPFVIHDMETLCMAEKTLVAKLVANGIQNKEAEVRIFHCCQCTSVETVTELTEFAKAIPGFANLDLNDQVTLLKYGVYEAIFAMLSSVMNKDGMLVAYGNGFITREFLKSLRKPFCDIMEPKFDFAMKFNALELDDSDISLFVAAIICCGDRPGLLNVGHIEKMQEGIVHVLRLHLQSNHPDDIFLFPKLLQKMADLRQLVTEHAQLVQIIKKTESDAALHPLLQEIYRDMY

[2] = target: T1, Peroxisome proliferator-activated receptor alpha; type: functional, cell-based, COS-1
Description: Agonist activity at human PPARalpha receptor expressed in african green monkey COS1 cells co-transfected with fused yeast Gal4-DBD by transactivation assay

[3] = target: T2, Peroxisome proliferator-activated receptor alpha (Mus musculus, UniProt P23204); assay: Agonist activity at mouse PPARalpha receptor expressed in african green monkey COS1 cells co-transfected with fused yeast Gal4-DBD by transactivation assay; type: functional, cell-based, COS-1
T2 sequence (P23204 whole entry): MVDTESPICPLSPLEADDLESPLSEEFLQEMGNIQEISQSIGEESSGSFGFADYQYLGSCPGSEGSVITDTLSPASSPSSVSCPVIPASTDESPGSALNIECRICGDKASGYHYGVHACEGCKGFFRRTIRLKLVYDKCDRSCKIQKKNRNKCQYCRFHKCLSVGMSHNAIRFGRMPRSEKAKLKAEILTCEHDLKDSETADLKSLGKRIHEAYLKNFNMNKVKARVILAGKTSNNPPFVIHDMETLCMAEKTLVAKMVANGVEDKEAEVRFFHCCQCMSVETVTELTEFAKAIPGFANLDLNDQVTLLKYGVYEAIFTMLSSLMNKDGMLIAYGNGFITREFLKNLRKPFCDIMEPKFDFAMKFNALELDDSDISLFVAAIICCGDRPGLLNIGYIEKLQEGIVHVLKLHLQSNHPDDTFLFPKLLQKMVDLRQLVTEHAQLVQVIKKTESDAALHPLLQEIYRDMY

[4] = target: T3, Peroxisome proliferator-activated receptor gamma (Homo sapiens, UniProt P37231)
T3 sequence (P37231 whole entry): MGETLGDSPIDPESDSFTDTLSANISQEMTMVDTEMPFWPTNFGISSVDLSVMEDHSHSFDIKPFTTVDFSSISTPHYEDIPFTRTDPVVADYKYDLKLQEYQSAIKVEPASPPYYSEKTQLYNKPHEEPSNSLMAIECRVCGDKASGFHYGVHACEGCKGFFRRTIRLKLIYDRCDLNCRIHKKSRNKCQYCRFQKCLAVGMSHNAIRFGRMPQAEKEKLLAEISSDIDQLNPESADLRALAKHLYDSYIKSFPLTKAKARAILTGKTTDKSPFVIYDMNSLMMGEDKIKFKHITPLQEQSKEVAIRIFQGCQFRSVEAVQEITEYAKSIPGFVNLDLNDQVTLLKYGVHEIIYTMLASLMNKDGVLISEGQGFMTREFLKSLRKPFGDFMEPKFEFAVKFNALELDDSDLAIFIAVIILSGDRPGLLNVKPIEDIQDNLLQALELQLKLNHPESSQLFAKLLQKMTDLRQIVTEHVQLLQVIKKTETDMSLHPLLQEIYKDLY
Description: Inhibition of human PPARgamma receptor by scintillation proximity assay

[5] = target: T3, Peroxisome proliferator-activated receptor gamma; remark: listed apart in the source
Description: (§2) Agonist activity at human PPARgamma receptor expressed in african green monkey COS1 cells co-transfected with fused yeast Gal4-DBD by transactivation assay

[6] = (§1) AUC in rat at 2 mg/kg, po; type: ADME, organism-based, Plasma; set-up: dose 2 mg/kg, route oral; details: plasma
Mus musculus [7] = assay: Antidiabetic activity in C57BLKS/J-m+/+Leprdb db/db mouse assessed as reduction in plasma glucose levels at 10 mg/kg, po once daily for 11 days relative to control; type: functional; set-up: scale not given: the % may be the effect or the level left
Mus musculus [8] = assay: Antidiabetic activity in C57BLKS/J-m+/+Leprdb db/db mouse assessed as reduction in plasma triglyceride levels at 10 mg/kg, po once daily for 11 days relative to control; type: functional; set-up: scale not given: the % may be the effect or the level left
[9] = AUC in C57BLKS/J-m+/+Leprdb db/db mouse at 10 mg/kg, po once daily for 11 days; type: ADME, organism-based; set-up: dose 10 mg/kg, route oral; details: plasma
Rattus norvegicus [10] = assay: as §1; type: ADME, organism-based, Plasma; set-up: dose 2 mg/kg, route oral; details: in vivo
[11] = Cmax in C57BLKS/J-m+/+Leprdb db/db mouse at 10 mg/kg, po once daily for 11 days; type: ADME, organism-based; set-up: dose 10 mg/kg, route oral; details: in vivo
Mus musculus [12] = assay: Antidiabetic activity in high fat diet-fed streptozotocin-treated mouse assessed as reduction in plasma glucose levels at 5 mg/kg, po once daily for 12 days relative to control; type: functional; set-up: scale not given: the % may be the effect or the level left
Mus musculus [13] = assay: Antidiabetic activity in high fat diet-fed streptozotocin-treated mouse assessed as reduction in plasma glucose levels at 30 mg/kg, po once daily for 12 days relative to control; type: functional; set-up: scale not given: the % may be the effect or the level left
Rattus norvegicus [14] = assay: Antidiabetic activity in Zucker fa/fa rat assessed as decrease in triglyceride levels at 0.03 mg/kg, po once daily for 7 days; type: functional, organism-based; set-up: dose 0.03 mg/kg
Rattus norvegicus [15] = assay: Antidiabetic activity in Zucker fa/fa rat assessed as decrease in triglyceride levels at 0.3 mg/kg, po once daily for 7 days; type: functional, organism-based; set-up: dose 0.3 mg/kg
Rattus norvegicus [16] = assay: Antidiabetic activity in Zucker fa/fa rat assessed as decrease in triglyceride levels at 3 mg/kg, po once daily for 7 days; type: functional, organism-based; set-up: dose 3 mg/kg
Rattus norvegicus [17] = assay: Antidiabetic activity in Zucker fa/fa rat assessed as decrease in triglyceride levels at 15 mg/kg, po once daily for 7 days; type: functional, organism-based; set-up: dose 15 mg/kg
Rattus norvegicus [18] = assay: Antidiabetic activity in Zucker fa/fa rat assessed as decrease in triglyceride levels at 1 mg/kg, po once daily for 7 days; type: functional, organism-based; set-up: dose 1 mg/kg
Rattus norvegicus [19] = assay: Antidiabetic activity in Zucker fa/fa rat assessed as decrease in triglyceride levels at 10 mg/kg, po once daily for 7 days; type: functional, organism-based; set-up: dose 10 mg/kg
Rattus norvegicus [20] = assay: Antidiabetic activity in Zucker fa/fa rat assessed as decrease in triglyceride levels at 100 mg/kg, po once daily for 7 days; type: functional, organism-based; set-up: dose 100 mg/kg
Rattus norvegicus [21] = assay: Antidiabetic activity in po dosed Zucker fa/fa rat assessed as insulin lowering activity treated once daily for 7 days; type: functional
[22] = AUC in Sprague-Dawley rat at 150 mg/kg, po once daily for 14 days; type: ADME, organism-based; set-up: dose 150 mg/kg, route oral; details: plasma
Canis familiaris = assay: Antidiabetic activity in Beagle dog assessed as reduction in total cholesterol level at 4 mg/kg, po once daily for 14 days relative to control; type: functional, Canis lupus familiaris; set-up: scale not given: the % may be the effect or the level left
[23] = target: T3, Peroxisome proliferator-activated receptor gamma; details: cos-1
Description: as §2

| SMILES | IC50 [1] | EC50 [2] | EC50 [3] | IC50 [4] | EC50 [5] | AUC [6] | Activity (Mus musculus [7]) | Activity (Mus musculus [8]) | other results |
| --- | --- | --- | --- | --- | --- | --- | --- | --- | --- |
| Cc1c(C(=O)c2ccc(Cl)cc2)c2ccc(OC(F)(F)F)cc2n1Cc1cccc(OC2(C(=O)O)CCC2)c1 | 1.08 µM | 0.185 µM | 0.15 µM | 0.016 µM | 0.012 µM | – | – | – | – |
| CCC[C@H](Oc1cccc(Cn2c(C)c(C(=O)c3ccc(Cl)cc3)c3ccc(OC(F)(F)F)cc32)c1)C(=O)O | > 50 µM | > 3 µM | > 3 µM | 0.008 µM | 0.001 µM | 1.2 µM·h | 22% | 8% | – |
| Cc1c(Cc2cccc(OCC(=O)O)c2)c2cc(OC(F)(F)F)ccc2n1C(=O)c1ccc(Cl)cc1 | > 15 µM | > 3 µM | > 3 µM | 0.001 µM | 0.003 µM | – | – | – | – |
| CCc1ccc(CCOc2ccc(CC3SC(=O)NC3=O)cc2)nc1 (centres undefined) [PIOGLITAZONE] | – | – | – | – | – | – | 53% | 65% | AUC at 264 h [9]: 180 µM·h |
| Cc1c(C(=O)c2ccc(Cl)cc2)c2ccc(OC(F)(F)F)cc2n1Cc1cccc(O[C@H](C(=O)O)C(C)C)c1 | 2.98 µM | 0.37 µM | 0.36 µM | 0.017 µM | 0.021 µM | 1.5 µM·h | 76% | 37% | – |
| Cc1c(C(=O)c2ccc(Cl)cc2)c2ccc(OC(F)(F)F)cc2n1Cc1cccc(OCC(=O)O)c1 | > 15 µM | > 3 µM | 0.35 µM | 0.002 µM | 0.002 µM | – | – | – | – |
| CC[C@@](C)(Oc1cccc(Cn2c(C)c(C(=O)c3ccc(Cl)cc3)c3ccc(OC(F)(F)F)cc32)c1)C(=O)O (stereo in doubt; 12j) | 0.764 µM | 0.129 µM | > 1 µM | 0.005 µM | 0.002 µM | – | – | – | AUC (Rattus norvegicus [10]): 2.8 µM·h; Activity (Mus musculus [7]; 10 mg/kg): 45%; Activity (Mus musculus [8]; 10 mg/kg): 3% |
| CN(CCOc1ccc(CC2SC(=O)NC2=O)cc1)c1ccccn1 (centres undefined) [ROSIGLITAZONE] | – | – | > 3 µM | – | – | 16.4 µM·h | 76% | 71% | Cmax [11]: 68 µM; Activity (Mus musculus [12]): 36%; Activity (Mus musculus [13]): 45%; Activity (Rattus norvegicus [14]): Active; Activity (Rattus norvegicus [15]): Active; Activity (Rattus norvegicus [16]): Active; Activity (Rattus norvegicus [17]): Active; Activity (Rattus norvegicus [18]): Active; Activity (Rattus norvegicus [19]): Active; Activity (Rattus norvegicus [20]): Active; ED50 (Rattus norvegicus [21]): 25 µM·h; AUC at 336 h [22]: 600 µM·h |
| Cc1c(C(=O)c2ccc(Cl)cc2)c2ccc(OC(F)(F)F)cc2n1Cc1cccc(O[C@@H](C)C(=O)O)c1 | > 15 µM | 4.89 µM | > 3 µM | – | – | 0.6 µM·h | 53% | 4% | – |
| CCC[C@@H](Oc1cccc(Cn2c(C)c(C(=O)c3ccc(Cl)cc3)c3ccc(OC(F)(F)F)cc32)c1)C(=O)O | > 15 µM | 0.38 µM | 0.11 µM | 0.012 µM | 0.01 µM | 1.7 µM·h | 94% | 80% | – |
| CC[C@H](Oc1cccc(Cn2c(C)c(C(=O)c3ccc(Cl)cc3)c3ccc(OC(F)(F)F)cc32)c1)C(=O)O | > 15 µM | 0.5 µM | > 3 µM | 0.004 µM | 0.006 µM | – | 22% | 7% | – |
| CCC(C)(C)C(=O)O[C@H]1C[C@@H](C)C=C2C=C[C@H](C)[C@H](CC[C@@H]3C[C@@H](O)CC(=O)O3)[C@H]21 [SIMVASTATIN] | – | – | – | – | – | – | – | – | Activity (Canis familiaris): 18.4% |
| Cc1c(C(=O)c2ccc(Cl)cc2)c2ccc(OC(F)(F)F)cc2n1Cc1cccc(O[C@@H](C(=O)O)C(C)C)c1 | 0.491 µM | 0.002 µM | 0.04 µM | 0.01 µM | 0.002 µM | 3.5 µM·h | 101% | 87% | – |
| Cc1c(C(=O)c2ccc(Cl)cc2)c2ccc(OC(F)(F)F)cc2n1Cc1cccc(O[C@H](C)C(=O)O)c1 | > 15 µM | 0.32 µM | 0.028 µM | 0.011 µM | 0.004 µM | 1.1 µM·h | 105% | 90% | – |
| CC[C@@](C)(Oc1cccc(Cn2c(C)c(C(=O)c3ccc(Cl)cc3)c3ccc(OC(F)(F)F)cc32)c1)C(=O)O (stereo in doubt; 12i) | 0.087 µM | 0.107 µM | – | 0.009 µM | – | – | – | – | AUC (Rattus norvegicus [10]): 1.3 µM·h; EC50 ([3]; cos-1): > 1 µM; Activity (Mus musculus [7]; 10 mg/kg): 71%; Activity (Mus musculus [8]; 10 mg/kg): 51%; EC50 [23]: 0.002 µM |
